Reference: the OPERA property sets (Mansouri et al. 2018)

Settings: not given

First: Cc1ccc(C)nc1
Second: Cc1cc(N)n(-c2ccccc2)n1
The boiling point of the first is lower: 157 °C for the first, 333 °C for the second.

Going from `CCCCOC(=O)C(=O)OCCCC` to `CCOC(=O)C(C(C)=O)C(C)=O`, the boiling point falls from 241 °C to 210 °C.

First: CCC(CC)Nc1c([N+](=O)[O-])cc(C)c(C)c1[N+](=O)[O-]
Second: CCC(CC)CC(C)(C)C
The boiling point of the first is higher: 330 °C for the first, 147 °C for the second.

Compared with `C/C=N/O`, `COC(=O)CS` is higher in boiling point: 115 °C for the first, 148 °C for the second.

Compared with `C=Cc1ccccc1OC`, `CCOC(=O)c1ccccc1Br` is higher in boiling point: 197 °C for the first, 254 °C for the second.

Compared with `c1ccc2nccnc2c1`, `O=C(c1ccccc1)c1ccccn1` is higher in boiling point: 230 °C for the first, 317 °C for the second.

Going from `FC(F)(F)C(F)(I)C(F)(F)F` to `FC(Cl)(Cl)c1ccccc1`, the boiling point rises from 40 °C to 179 °C.

First: COc1ccc(I)cc1
Second: CC(C)c1cccc2ccccc12
The boiling point of the first is lower: 238 °C for the first, 268 °C for the second.

Compared with `CC(C)COS(=O)OCC(C)C`, `CCC(=O)CC(C)C` is lower in boiling point: 210 °C for the first, 135 °C for the second.

First: CCCCCCCCCCc1ccccc1
Second: CCCCCCCCCCCl
The boiling point of the first is higher: 298 °C for the first, 223 °C for the second.

Compared with `CCCCCCCC#N`, `CCCCCCCCCCCCCCCN` is higher in boiling point: 205 °C for the first, 308 °C for the second.

Going from `FC(Br)Br` to `CC(C)(C)c1ccncc1`, the boiling point rises from 64.9 °C to 196 °C.

Compared with `C=C[Si]1(C)O[Si](C)(C=C)O[Si](C)(C=C)O[Si](C)(C=C)O1` (stereo not drawn), `CC1=CC=CC1` is lower in boiling point: 224 °C for the first, 72.8 °C for the second.

`Cc1ccc(C)nc1` showed a log10 Henry constant (atm·m³/mol) of -5.06.

First: Cc1ccc(C)nc1
Second: Nc1cnc2ccccc2c1
The log10 vapour pressure (mmHg) of the first is higher: 0.526 for the first, -4.54 for the second.

First: CCC(CC)Nc1c([N+](=O)[O-])cc(C)c(C)c1[N+](=O)[O-]
Second: COP(=S)(OC)Oc1ccc([N+](=O)[O-])cc1Cl
The log10 vapour pressure (mmHg) of the first is higher: -4.52 for the first, -5.44 for the second.

Compared with `CCCCCCCCCCc1ccccc1`, `CCCCCCCCCCCl` is higher in log10 vapour pressure (mmHg): -2.89 for the first, -2.01 for the second.

Going from `CCCCCCCC#N` to `CCOP(=S)(OCC)SCSP(=S)(OCC)OCC`, the log10 vapour pressure (mmHg) falls from -0.409 to -5.82.

Compared with `COC(=O)CS`, `O=C(Cl)Cc1ccccc1` is lower in log10 vapour pressure (mmHg): 0.477 for the first, -0.702 for the second.

Compared with `CC(C)c1cccc2ccccc12`, `CN=C(O)/C(=N/OC)c1ccccc1Oc1ccccc1` is lower in log10 vapour pressure (mmHg): -2.22 for the first, -6.87 for the second.

Work on `CC1=CC=CC1` yielded a log10 vapour pressure (mmHg) of 2.09.

Compared with `Cc1ccc(C)nc1`, `Cc1cc(N)n(-c2ccccc2)n1` is higher in melting point: -16 °C for the first, 116 °C for the second.

Going from `C=CC(=O)O[C@@H]1C[C@H]2CC[C@]1(C)C2(C)C` to `CC1(C)COC(=O)C1O` (stereo not drawn), the melting point falls from 97 °C to 92 °C.

Going from `CCCCOC(=O)C(=O)OCCCC` to `CCCCCCCCC(CCCCCCCC)C(=O)O`, the melting point rises from -30.5 °C to 38.5 °C.

First: C=CCc1cc(OC)c(OC)c(OC)c1OC
Second: C=Cc1ccccc1OC
The melting point of the first is lower: 25 °C for the first, 29 °C for the second.

Going from `CCC(CC)Nc1c([N+](=O)[O-])cc(C)c(C)c1[N+](=O)[O-]` to `COC(=O)c1ccc(Cl)c([N+](=O)[O-])c1`, the melting point rises from 56 °C to 83 °C.

Going from `CCCCCCCCCCCCN1CC(C(=O)OC)CC1=O` (stereo not drawn) to `CCCCCCCCCCCCCCCN`, the melting point rises from 27.5 °C to 37.3 °C.

Going from `O=C1c2ccccc2C(=O)N1CCCBr` to `CC(C)c1cccc2ccccc12`, the melting point falls from 75 °C to -16 °C.

Going from `CCCC(C)(Cl)Cl` to `CCCCCCCCCCCl`, the melting point falls from 128 °C to -31.3 °C.

First: C/C=N/O
Second: CN.Cl
The melting point of the first is lower: 45 °C for the first, 228 °C for the second.

First: c1ccc2nccnc2c1
Second: Nc1cnc2ccccc2c1
The melting point of the first is lower: 28 °C for the first, 91.5 °C for the second.

Compared with `COP(=S)(OC)Oc1ccc([N+](=O)[O-])cc1Cl`, `COc1ccc(I)cc1` is higher in melting point: 52.5 °C for the first, 53 °C for the second.

First: CC(C)(C)c1ccc(C(=O)O)cc1
Second: CC(C)(C)c1ccncc1
The melting point of the first is higher: 164 °C for the first, -41 °C for the second.

Going from `CCCCCCCCCCc1ccccc1` to `CCCCCCCC#N`, the melting point falls from -14.4 °C to -45.6 °C.

Compared with `CCCCSP(SCCCC)SCCCC`, `CCOP(=S)(OCC)SCSP(=S)(OCC)OCC` is lower in melting point: 100 °C for the first, -13 °C for the second.

Going from `FC(Br)Br` to `FC(Cl)(Cl)c1ccccc1`, the melting point rises from -78 °C to -26.8 °C.

Going from `CC(=O)c1ccc(O)cc1` to `CCN(CC)CCOC(=O)c1ccc(N)cc1.Cl`, the melting point rises from 110 °C to 156 °C.

Compared with `CC1=CC(=O)O[C@@]2(C1)C[C@H]1CC[C@@H]2CN1C`, `C=C1C2CCC3C(CCC4C35CCC[C@]4(C)CN3CCO[C@H]35)(C2)[C@H]1O` (stereo partly drawn) is higher in melting point: 54.5 °C for the first, 120 °C for the second.

Compared with `C=C[Si]1(C)O[Si](C)(C=C)O[Si](C)(C=C)O[Si](C)(C=C)O1` (stereo not drawn), `CC1=CC(=O)CC(C)(C)[C@@]1(O)/C=C/C(C)=C\C(=O)O` is higher in melting point: -43.5 °C for the first, 160 °C for the second.

First: O=C(c1ccccc1)c1ccccn1
Second: CN=C(O)/C(=N/OC)c1ccccc1Oc1ccccc1
The melting point of the first is lower: 42 °C for the first, 88 °C for the second.

First: CC1=C(c2ccccc2)C(=O)N(C(C)(C)c2cc(Cl)cc(Cl)c2)CO1
Second: COC(=O)C1(S(=O)(=O)c2ccccc2)CCCCC1
The melting point of the first is higher: 150 °C for the first, 114 °C for the second.

`Nc1ccc(S(=O)(=O)Nc2ccccn2)cc1` showed a melting point of 192 °C.

For `CN(C)CCOCCN(C)C`, the ready biodegradability was “not readily biodegradable”.
In the case of `CCCCCC[Si](Cl)(CCCCCC)CCCCCC`, the ready biodegradability is reported as “not readily biodegradable”.
With `CC(C)(C)c1ccc(C(=O)O)cc1` the ready biodegradability was “not readily biodegradable”.
With `O=C(O)c1cccc2ccccc12` the ready biodegradability was “not readily biodegradable”.
For `Clc1ccc(C(Cl)(Cl)Cl)c(Cl)c1`, the ready biodegradability was “not readily biodegradable”.
With `CC(=O)c1ccc(O)cc1` the ready biodegradability was “readily biodegradable”.
For `CC1(C)COC(=O)C1O` (stereo not drawn), the ready biodegradability was “readily biodegradable”.
In the case of `CCC(CO)(CO)CO`, the ready biodegradability is reported as “not readily biodegradable”.
With `CCCCCCC(C)Nc1ccc(Nc2ccccc2)cc1` (stereo not drawn) the ready biodegradability was “not readily biodegradable”.
With `O=C(c1ccccc1)c1ccccn1` the ready biodegradability was “readily biodegradable”.

Compared with `CCC(CC)Nc1c([N+](=O)[O-])cc(C)c(C)c1[N+](=O)[O-]`, `CCOP(=S)(OCC)SCSP(=S)(OCC)OCC` is higher in log10 Koc (L/kg): 3.7 for the first, 4.06 for the second.

Same assay, conditions: fish

`O=[N+]([O-])c1cccc(Cl)c1` and `COP(=S)(OC)Oc1ccc([N+](=O)[O-])cc1Cl` are the same in log10 BCF: 1.89 for the first, 1.89 for the second.

First: CN(C)C(=O)Nc1ccc(Cl)c(Cl)c1
Second: COc1c(Cl)c(Cl)cc(Cl)c1Cl
The log10 BCF of the first is lower: 1.15 for the first, 3.69 for the second.

First: C=C[C@@]1(C)CC[C@H]2C(=CC[C@@H]3[C@]2(C)CCC[C@@]3(C)C(=O)O)C1
Second: CC(C)(C)c1ccc(C(=O)O)cc1
The log10 BCF of the first is higher: 1.63 for the first, 0.66 for the second.

Going from `O=[N+]([O-])c1cc(Cl)c(Cl)c(Cl)c1Cl` to `CCCCCCCCCc1ccc(O)cc1`, the log10 BCF rises from 1.9 to 2.58.

Compared with `CN(C)C(=O)Nc1ccc(Cl)c(Cl)c1`, `Clc1ccc(Cl)c(-c2c(Cl)cc(Cl)c(Cl)c2Cl)c1` is higher in log10 biotransformation half-life (days): -1.45 for the first, 2.23 for the second.

Going from `O=[N+]([O-])c1cc(Cl)c(Cl)c(Cl)c1Cl` to `COP(=S)(OC)Oc1ccc([N+](=O)[O-])cc1Cl`, the log10 biotransformation half-life (days) rises from -0.69 to 0.01.

First: C1CCC(CCC2CCCCC2)CC1
Second: CCCCCCCCCc1ccc(O)cc1
The log10 biotransformation half-life (days) of the first is higher: 0.13 for the first, -0.23 for the second.

With `CCCCCCCCCCc1ccccc1` the log10 biotransformation half-life (days) was 0.63.
